# From patent US6613718B2, “Aryl ether derivatives and processes for their preparation and herbicidal and desiccant compositions containing them” (Ishihara Sangyo Kaisha, Ltd., priority 2001, dated 2003)
# Legend:
# Format in all cases: in vivo
# Conditions in all cases: 14 days after application
# [1] = tested on: soybean (Glycine max L., var. Pella 86, SOY); experiment: Post-emerge greenhouse screening, crop safety (phytotoxicity rating)
# From the text: (§1) A standard greenhouse herbicide activity screening system was used to evaluate the herbicidal efficacy and crop safety of these test compounds. Seven broadleaf weed species including redroot pigweed (Amaranthus retroflexus, AMARE), velvetleaf (Abutilon theophrasti, ABUTH), sicklepod (Cassia obtusifolia, CASOB), ivyleaf morningglory (Ipomoea hederacea, IPOHE), lambsquarters (Chenopodium album, CHEAL), common ragweed (Ambrosia artemisiifolia L., AMBEL), and cocklebur (Xanthium strumarium, XANST) were used as test species. Four grass weed species including green foxtail (Setaria viridis, SETVI), barnyardgrass (Echinochloa crus-galli, ECHCG), johnsongrass (Sorghum halepense, SORHA), and large crabgrass (Digitaria sanguinalis, DIGSA) were also used. In addition, three crop species, field corn (Zea mays L., var. Dekalb 535, CORN), soybean (Glycine max L., var. Pella 86, SOY), and upland rice (Oryza sp., var.Tebonnet, RICE) were included.
# (§2) All plants were grown in 10 cm square plastic pots which were filled with a sandy loam soil mix. For pre-emerge tests, seeds were planted one day prior to application of the test compounds. For post-emerge tests, seeds were planted 8-21 days prior to the test to allow emergence and good foliage development prior to application of the test substances. At the time of the post-emerge application, plants of all species were usually at the 2-3 leaf stage of development.
# (§3) All test compounds were dissolved in acetone and applied to the test units in a volume of 187 1/ha. Test materials were applied at rates ranging from 15 g ai/ha to 1000 g ai/ha using a track sprayer equipped with a TJ8001E even flow flat fan spray nozzle. Plants were arranged on a shelf so that the top of the canopy (post-emerge) or top of the soil surface (pre-emerge) was 40-45 cm below the nozzle. Pressurized air was used to force the test solution through the nozzle as it was mechanically advanced (via electrically driven chain drive) over the top of all test plants/pots. This application simulates a typical commercial field herbicide application.
# (§4) In the post-emerge test, a commercial non-ionic surfactant was also included (0.25% v/v) to enhance wetting of the leaf surfaces of target plants. Immediately after application, test units of the pre-emerge applications were watered at the soil surface to incorporate the test materials. Subsequently, these test units were bottom-watered. Post-emerge test units were always bottom-watered.
# (§5) At 14 days after application of the test materials, phytotoxicity ratings were recorded. A rating scale of 0-100 was used as previously described in Research Methods in Weed Science, 2nd edition, B. Truelove, Ed., Southern Weed Science Society, Auburn University, Auburn, Ala., 1977. Briefly, “0” corresponds to no damage and “100” corresponds to complete death of all plants in the test unit. This scale was used both to determine efficacy against weed species and damage to crop species. Herbicide activity data for various compounds of this invention, which are shown by compound No. in Tables I-VI, are shown in Tables VIII-IX.
# [2] = tested on: upland rice (Oryza sp., var.Tebonnet, RICE); experiment: as above
# From the text: as §1, §2, §3, §4, §5
# [3] = tested on: lambsquarters (Chenopodium album, CHEAL); experiment: Post-emerge greenhouse herbicide activity screening, phytotoxicity rating
# From the text: as §1, §2, §3, §4, §5
# [4] = tested on: ivyleaf morningglory (Ipomoea hederacea, IPOHE); experiment: as above
# From the text: as §1, §2, §3, §4, §5
# [5] = tested on: johnsongrass (Sorghum halepense, SORHA); experiment: as above
# From the text: as §1, §2, §3, §4, §5
# [6] = tested on: sicklepod (Cassia obtusifolia, CASOB); experiment: as above
# From the text: as §1, §2, §3, §4, §5
# [7] = tested on: large crabgrass (Digitaria sanguinalis, DIGSA); experiment: as above
# From the text: as §1, §2, §3, §4, §5
# [8] = tested on: green foxtail (Setaria viridis, SETVI); experiment: as above
# From the text: as §1, §2, §3, §4, §5
# [9] = tested on: barnyardgrass (Echinochloa crus-galli, ECHCG); experiment: as above
# From the text: as §1, §2, §3, §4, §5
# [10] = tested on: redroot pigweed (Amaranthus retroflexus, AMARE); experiment: as above
# From the text: as §1, §2, §3, §4, §5
# [11] = tested on: velvetleaf (Abutilon theophrasti, ABUTH); experiment: as above
# From the text: as §1, §2, §3, §4, §5
# [12] = tested on: common ragweed (Ambrosia artemisiifolia L., AMBEL); experiment: as above
# From the text: as §1, §2, §3, §4, §5
# [13] = tested on: field corn (Zea mays L., var. Dekalb 535, CORN); experiment: Pre-emerge greenhouse screening, crop safety (phytotoxicity rating)
# From the text: as §1, §2, §3, §4, §5
# [14] = tested on: soybean (Glycine max L., var. Pella 86, SOY); experiment: as above
# From the text: as §1, §2, §3, §4, §5
# [15] = tested on: upland rice (Oryza sp., var.Tebonnet, RICE); experiment: as above
# From the text: as §1, §2, §3, §4, §5
# [16] = tested on: lambsquarters (Chenopodium album, CHEAL); experiment: Pre-emerge greenhouse herbicide activity screening, phytotoxicity rating
# From the text: as §1, §2, §3, §4, §5
# [17] = tested on: ivyleaf morningglory (Ipomoea hederacea, IPOHE); experiment: as above
# From the text: as §1, §2, §3, §4, §5
# [18] = tested on: johnsongrass (Sorghum halepense, SORHA); experiment: as above
# From the text: as §1, §2, §3, §4, §5
# [19] = tested on: sicklepod (Cassia obtusifolia, CASOB); experiment: as above
# From the text: as §1, §2, §3, §4, §5
# [20] = tested on: large crabgrass (Digitaria sanguinalis, DIGSA); experiment: as above
# From the text: as §1, §2, §3, §4, §5
# [21] = tested on: green foxtail (Setaria viridis, SETVI); experiment: as above
# From the text: as §1, §2, §3, §4, §5
# [22] = tested on: barnyardgrass (Echinochloa crus-galli, ECHCG); experiment: as above
# From the text: as §1, §2, §3, §4, §5
# [23] = tested on: redroot pigweed (Amaranthus retroflexus, AMARE); experiment: as above
# From the text: as §1, §2, §3, §4, §5
# [24] = tested on: velvetleaf (Abutilon theophrasti, ABUTH); experiment: as above
# From the text: as §1, §2, §3, §4, §5
# [25] = tested on: common ragweed (Ambrosia artemisiifolia L., AMBEL); experiment: as above
# From the text: as §1, §2, §3, §4, §5
# [26] = tested on: field corn (Zea mays L., var. Dekalb 535, CORN); experiment: Post-emerge greenhouse screening, crop safety / corn selectivity (phytotoxicity rating)
# From the text: as §1, §2, §3, §4, §5
structure (smiles),measurement,setting,value
Cn1c(C(F)(F)F)cc(=O)n(-c2cc(Oc3ncccc3C(F)(F)F)c(Cl)cc2F)c1=S [Compound 1-15],"SOY crop damage, phytotoxicity rating (0-100 scale)",[1]; 125 g ai/ha,10
same,"SOY crop damage, phytotoxicity rating (0-100 scale)",[1]; 250 g ai/ha,10
same,"RICE crop damage, phytotoxicity rating (0-100 scale)",[2]; 125 g ai/ha,0
same,"RICE crop damage, phytotoxicity rating (0-100 scale)",[2]; 250 g ai/ha,0
same,CHEAL phytotoxicity rating (0-100 scale),[3]; 125 g ai/ha,100
same,CHEAL phytotoxicity rating (0-100 scale),[3]; 250 g ai/ha,100
same,IPOHE phytotoxicity rating (0-100 scale),[4]; 125 g ai/ha,75
same,IPOHE phytotoxicity rating (0-100 scale),[4]; 250 g ai/ha,100
same,SORHA phytotoxicity rating (0-100 scale),[5]; 125 g ai/ha,0
same,SORHA phytotoxicity rating (0-100 scale),[5]; 250 g ai/ha,0
same,CASOB phytotoxicity rating (0-100 scale),[6]; 125 g ai/ha,60
same,CASOB phytotoxicity rating (0-100 scale),[6]; 250 g ai/ha,65
same,DIGSA phytotoxicity rating (0-100 scale),[7]; 125 g ai/ha,0
same,DIGSA phytotoxicity rating (0-100 scale),[7]; 250 g ai/ha,0
same,SETVI phytotoxicity rating (0-100 scale),[8]; 125 g ai/ha,0
same,SETVI phytotoxicity rating (0-100 scale),[8]; 250 g ai/ha,0
same,ECHCG phytotoxicity rating (0-100 scale),[9]; 125 g ai/ha,0
same,ECHCG phytotoxicity rating (0-100 scale),[9]; 250 g ai/ha,0
same,AMARE phytotoxicity rating (0-100 scale),[10]; 125 g ai/ha,90
same,AMARE phytotoxicity rating (0-100 scale),[10]; 250 g ai/ha,90
same,ABUTH phytotoxicity rating (0-100 scale),[11]; 125 g ai/ha,95
same,ABUTH phytotoxicity rating (0-100 scale),[11]; 250 g ai/ha,95
same,AMBEL phytotoxicity rating (0-100 scale),[12]; 125 g ai/ha,55
same,AMBEL phytotoxicity rating (0-100 scale),[12]; 250 g ai/ha,55
same,"CORN crop damage, phytotoxicity rating (0-100 scale)",[13]; 125 g ai/ha,8
same,"CORN crop damage, phytotoxicity rating (0-100 scale)",[13]; 250 g ai/ha,8
same,"SOY crop damage, phytotoxicity rating (0-100 scale)",[14]; 125 g ai/ha,0
same,"SOY crop damage, phytotoxicity rating (0-100 scale)",[14]; 250 g ai/ha,35
same,"RICE crop damage, phytotoxicity rating (0-100 scale)",[15]; 125 g ai/ha,0
same,"RICE crop damage, phytotoxicity rating (0-100 scale)",[15]; 250 g ai/ha,0
same,CHEAL phytotoxicity rating (0-100 scale),[16]; 125 g ai/ha,100
same,CHEAL phytotoxicity rating (0-100 scale),[16]; 250 g ai/ha,100
same,IPOHE phytotoxicity rating (0-100 scale),[17]; 125 g ai/ha,95
same,IPOHE phytotoxicity rating (0-100 scale),[17]; 250 g ai/ha,100
same,SORHA phytotoxicity rating (0-100 scale),[18]; 125 g ai/ha,60
same,SORHA phytotoxicity rating (0-100 scale),[18]; 250 g ai/ha,98
same,CASOB phytotoxicity rating (0-100 scale),[19]; 125 g ai/ha,55
same,CASOB phytotoxicity rating (0-100 scale),[19]; 250 g ai/ha,85
same,DIGSA phytotoxicity rating (0-100 scale),[20]; 125 g ai/ha,99
same,DIGSA phytotoxicity rating (0-100 scale),[20]; 250 g ai/ha,100
same,SETVI phytotoxicity rating (0-100 scale),[21]; 125 g ai/ha,100
same,SETVI phytotoxicity rating (0-100 scale),[21]; 250 g ai/ha,100
same,ECHCG phytotoxicity rating (0-100 scale),[22]; 125 g ai/ha,50
same,ECHCG phytotoxicity rating (0-100 scale),[22]; 250 g ai/ha,65
same,AMARE phytotoxicity rating (0-100 scale),[23]; 125 g ai/ha,100
same,AMARE phytotoxicity rating (0-100 scale),[23]; 250 g ai/ha,100
same,ABUTH phytotoxicity rating (0-100 scale),[24]; 125 g ai/ha,100
same,ABUTH phytotoxicity rating (0-100 scale),[24]; 250 g ai/ha,100
same,AMBEL phytotoxicity rating (0-100 scale),[25]; 125 g ai/ha,75
same,AMBEL phytotoxicity rating (0-100 scale),[25]; 250 g ai/ha,90
same,"CORN crop damage, phytotoxicity rating (0-100 scale)",[26]; 125 g ai/ha,5
same,"CORN crop damage, phytotoxicity rating (0-100 scale)",[26]; 250 g ai/ha,5
